For series [1], the system named is OFA rats. Kind of series: Anticoagulant activity ex vivo, intravenous administration, activated cephalin time. Format: in vivo, rat. To be noted: 0.5 mg/kg i.v. Here is the method:
OFA rats, fasted or otherwise, are anesthetized with pentobarbital (60 mg/kg i.p.). The carotid artery and the jugular vein are exposed and catheterized. The catheters are flushed with citrated (1/40) physiological solution. After installation of the catheters, a sample of 1.5 cm^3 of arterial blood is withdrawn into 0.109M citrate (1/9).
30 minutes later, the test product is administered i.v. in a volume of 1 ml.
Arterial blood samples (1.5 ml) are then withdrawn at 1 minute 30 sec and 5, 15, 30 and 60 minutes.
As each sample is withdrawn, 1.5 ml of citrated physiological solution are reinjected into the animal via the carotid.
The blood tubes are centrifuged for 15 minutes at 3000 g (preparation of plasma). 100 μl of plasma are incubated with 100 gl of activated cephalin. The time of onset of the coagulation phenomenon is measured after adding 100 μl of calcium.
The compounds of the invention, tested at a dose of 0.5 mg/kg, increase the activated cephalin time (ACT) in a dose-dependent manner. […] The increase in ACT noted with the compounds of the invention is still significant 60 minutes after their administration. The results are reproduced in the following table, and show the factors by which the coagulation time is increased.

The test system of series [2] is thrombin time of human platelet-poor plasma. Description: Anticoagulant activity: thrombin time in human plasma. The note with it: for Man CTT2 (concentration which multiplies the thrombin time by 2): human plasma, 2 minutes at 37° C. It counts as biochemical. Here is the method: (§1) In the presence of a standard quantity of thrombin, a normal plasma coagulates in a defined and constant time, termed the thrombin time (TT). Any prolongation of this time reflects an abnormality of fibrin formation (coagulation).
(§2) Sprague-Dawley rats are anesthetized with pentobarbital sodium (60 mg/kg i.p.), the carotid artery is catheterized and blood samples are taken into trisodium citrate solution (0.109M). A platelet-poor plasma is obtained by centrifugation of the blood samples (3000 g, 15 minutes). Samples of venous blood are also taken from humans at the bend of the arm. Anticoagulation of the samples and preparation of platelet-poor plasma are identical to those carried out with rat blood.
(§3) The thrombin time is obtained with Prest thrombin reagent and determined automatically using a coagulometer.
(§4) The antagonist or the solvent (10 μl) is added to the plasma (90 μl) and then incubated for 2 minutes at 37° C. 100 µl of thrombin are added as the chronometer is started.
(§5) Under these conditions, the TT values obtained in the control plasma are of the order of 30 seconds in rats and 20 seconds in humans. The activity of an antagonist is evaluated by its capacity to prolong this thrombin time relative to the control.
(§6) Under these conditions, the compounds of the invention permit a prolongation of the thrombin time of 50-fold and more. The effect of the inhibitors is measured, and the concentration which multiplies the thrombin time by 2 (CTT2) is determined.

For series [3], the target named is T1, purified human activated protein C (Homo sapiens, UniProt P04070).
T1 construct: purchased Stago
Kind of series: Inhibition of activated protein C. Format: biochemical. The note with it: substrate S 2366. Here is the method:
(§7) To evaluate in vitro the selectivity of these products with respect to different serine proteases of fibrinolysis and of coagulation, the same protocol was applied to purified human plasmin (2 nM, Stago), to purified human activated protein C (2 nM, Stago), to purified human activated factor X (2 nM, Stago), to tissue plasminogen activator (2 nM, Calbiochem), to purified human urokinase (2 nM, Sigma) and to purified human plasma kallikrein (2 nM, Calbiochem), using different peptidyl para-nitroanilides as substrate: <Glu-Phe-Lys-pNA (0.50 mM, S 2403, Kabi) for plasmin, N-Cbo-Arg-Gly-Arg-pNA (0.38 mM, S 2765, Kabi) for factor Xa, <Glu-Pro-Arg-pNa (0.52 mM, S 2366, Kabi) for activated protein C, H-D-Pro-Phe-Arg-pNa (0.45 mM, S 2302, Kabi) for kallikrein, H-D-Ile-Pro-Arg-pNA (0.48 mM, S 2288, Kabi), <Glu-Gly-Arg-pNA (0.56 mM, S 2444, Kabi).
(§8) Inhibitors, enzymes and substrates are diluted in the same buffer ([…] buffer, pH 7.4, containing 0.12M sodium chloride and 0.05% of bovine serum albumin), and then distributed in a polystyrene microplate in a volume of […].
(§9) The fibrin formed by thrombin or by the para-nitroaniline liberated by the action of the serine protease is measured spectrophotometrically at 405 nm after 15 to 30 minutes of reaction at 20° C.

Series [4] deals with T2, purified human activated factor X (Homo sapiens, UniProt P00742).
T2 construct: purchased Stago
Description: Inhibition of activated factor X. Format: biochemical. The note with it: substrate S 2765. How it is done:
as §7, §8, §9

The subject of series [5] is dogs. Kind of series: Thrombopenia p.o. in dogs, platelet count. To be noted: 5 mg/kg orally. Format: in vivo, dog. How it is done: (§10) The products were administered orally to dogs.2 hours and 4 hours after the treatment, and blood was withdrawn via the intravenous route. The plasma is prepared, platelets counted and the thrombin time test is carried out.
Series [6] addresses T3, purified human plasma kallikrein (Homo sapiens, UniProt P03952).
T3 construct: to purified human plasma kallikrein (2 nM, Calbiochem); purchased Calbiochem
Kind of series: Inhibition of plasma kallikrein. Format: biochemical. To be noted: substrate S 2302; read-out: IC50 Kalli. How it is done:
as §7, §8, §9

The target of the next series is T4, purified human plasmin (Homo sapiens, UniProt P00747).
T4 construct: purified human plasmin (2 nM, Stago); purchased Stago
Description: Inhibition of plasmin. Format: biochemical. To be noted: substrate S 2403. Here is the method: as §7, §8, §9

For series [7], the system named is OFA rats. Description: Anticoagulant activity ex vivo, intravenous administration, activated cephalin time. It counts as in vivo, rat. To be noted: 0.5 mg/kg i.v., 15.5 min.
The target of series [8] is T5, tissue plasminogen activator (Homo sapiens, UniProt P00750).
T5 construct: purchased Calbiochem
Kind of series: Inhibition of tissue plasminogen activator. The note with it: peptidyl para-nitroanilide substrate. It counts as biochemical. How it is done:
as §7, §8, §9

Another series has as its target T6, purified human urokinase (Homo sapiens, UniProt P00749).
T6 construct: purchased Sigma
Description: Inhibition of urokinase. It counts as biochemical. To be noted: peptidyl para-nitroanilide substrate. Here is the method: as §7, §8, §9

The next series deals with T7, human thrombin (Homo sapiens, UniProt P00734).
T7 construct: human thrombin (Sigma, specific activity 3230 NIHU/mg); purchased Sigma
Description: Inhibition of human thrombin (fibrinogen or S2238 substrate). Format: biochemical. The note with it: for IC50: 20° C.; for selectivity with respect to the serine proteases of coagulation and of fibrinolysis compared with DUP 714: thrombin versus other serine proteases; for potency on human thrombin compared with DUP 714: with respect to human fibrinogen. How it is done:
To evaluate in vitro the inhibitory activity of the boro-arginine products with respect to human thrombin (Sigma, specific activity 3230 NIHU/mg), purified human fibrinogen ([…], Stago) (Fg) or the chromogenic substrate H-D-Phe-Pip-Arg-pNa ([…], S2238, Kabi) was added to a given quantity of thrombin (0.7 or 2 nM) incubated beforehand with or without the inhibitor under test (20° C., 10 minutes).
as §8, §9

The subject of series [9] is dogs. Description: Anticoagulant activity p.o. in dogs, thrombin time. It counts as in vivo, dog. To be noted: 5 mg/kg orally. Here is the method: as §10
In series [10] the test system is thrombin time of rat platelet-poor plasma. Description: Anticoagulant activity: thrombin time in rat plasma. It counts as biochemical. To be noted: for Rat CTT2 (concentration which multiplies the thrombin time by 2): rat plasma, 2 minutes at 37° C. How it is done: as §1, §2, §3, §4, §5, §6
Series [11] has as its system OFA rats. Description: Anticoagulant activity ex vivo, oral administration (conscious rats), thrombin time. It counts as in vivo, rat. The note with it: 10 mg/kg orally. Here is the method: Fasted OFA rats are anesthetized with ether. The cordal artery is exposed and catheterized. The catheter is flushed with citrated (1/40) physiological solution. After installation of the catheter, the animal is placed in a restraining cage and 1.5 cm^3 of arterial blood are withdrawn into 0.109M citrate (1/9).
1 hour after the animal has awoken, the test products are administered orally at a single dose of 10 mg/kg.
Arterial blood samples (1.5 ml) are then withdrawn at 30 minutes, 60 minutes and 2 hours.
As each sample is withdrawn, 1.5 ml of physio-logical solution are reinjected into the animals.
The blood tubes are centrifuged for 15 minutes at 3000 g for preparation of the plasma. The time of onset of the coagulation phenomenon is measured after adding Prest thrombin.
The results are reproduced in the following table, and show the factors by which the thrombin time is increased.

[12] abbreviates: chromogenic substrate S2238, read-out: IC50 Thrombin S2238.
[13] abbreviates: substrate purified human fibrinogen, read-out: IC50 Thrombin Fg.

Experimental findings from patent publication US5444049A, “Peptide compounds derived from boronic acid” (Adir et Compagnie, priority 1993, dated 1995) are described below.

Like-named read-outs stand apart in the source and are kept apart here.

Usually IC50 stands for the concentration that inhibits the measured activity by half.

T3 sequence (P03952 391-638 limits assumed): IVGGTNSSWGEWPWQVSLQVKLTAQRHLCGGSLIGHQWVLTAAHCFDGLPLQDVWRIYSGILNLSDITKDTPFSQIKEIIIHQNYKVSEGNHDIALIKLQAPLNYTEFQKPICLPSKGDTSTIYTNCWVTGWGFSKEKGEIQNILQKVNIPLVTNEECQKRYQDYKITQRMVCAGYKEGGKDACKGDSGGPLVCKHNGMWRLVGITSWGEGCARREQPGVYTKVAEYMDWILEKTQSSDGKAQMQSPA
T3 sequence (P03952 20-390 limits assumed): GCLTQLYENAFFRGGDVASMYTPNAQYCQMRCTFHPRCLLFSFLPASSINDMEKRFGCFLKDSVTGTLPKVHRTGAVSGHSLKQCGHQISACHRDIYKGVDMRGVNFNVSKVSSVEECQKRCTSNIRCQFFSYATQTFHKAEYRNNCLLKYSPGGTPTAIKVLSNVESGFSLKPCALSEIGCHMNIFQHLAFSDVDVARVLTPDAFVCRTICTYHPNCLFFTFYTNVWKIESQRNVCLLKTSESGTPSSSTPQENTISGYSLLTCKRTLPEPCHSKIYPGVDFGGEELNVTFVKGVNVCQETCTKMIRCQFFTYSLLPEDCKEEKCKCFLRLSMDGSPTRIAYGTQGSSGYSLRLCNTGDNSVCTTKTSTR
T2 sequence (P00742 235-488 limits assumed): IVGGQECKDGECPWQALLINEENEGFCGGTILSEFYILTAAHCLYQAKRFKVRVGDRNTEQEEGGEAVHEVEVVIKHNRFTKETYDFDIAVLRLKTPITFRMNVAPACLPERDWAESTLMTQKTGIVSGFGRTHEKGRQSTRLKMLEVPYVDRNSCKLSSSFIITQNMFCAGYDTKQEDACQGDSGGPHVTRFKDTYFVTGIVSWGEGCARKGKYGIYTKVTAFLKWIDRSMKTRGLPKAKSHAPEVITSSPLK
T2 sequence (P00742 41-179 limits assumed): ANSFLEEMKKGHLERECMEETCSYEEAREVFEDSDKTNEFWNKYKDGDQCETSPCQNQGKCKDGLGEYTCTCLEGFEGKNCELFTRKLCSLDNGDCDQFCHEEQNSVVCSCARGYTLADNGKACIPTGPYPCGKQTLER
T1 sequence (P04070 212-461 limits assumed): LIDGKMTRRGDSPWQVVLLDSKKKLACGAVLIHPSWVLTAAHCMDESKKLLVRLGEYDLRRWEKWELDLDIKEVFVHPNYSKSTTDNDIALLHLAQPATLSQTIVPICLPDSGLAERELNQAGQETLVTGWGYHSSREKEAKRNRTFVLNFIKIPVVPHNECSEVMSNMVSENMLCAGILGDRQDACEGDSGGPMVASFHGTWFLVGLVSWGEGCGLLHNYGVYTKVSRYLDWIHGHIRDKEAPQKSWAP
T1 sequence (P04070 43-197 limits assumed): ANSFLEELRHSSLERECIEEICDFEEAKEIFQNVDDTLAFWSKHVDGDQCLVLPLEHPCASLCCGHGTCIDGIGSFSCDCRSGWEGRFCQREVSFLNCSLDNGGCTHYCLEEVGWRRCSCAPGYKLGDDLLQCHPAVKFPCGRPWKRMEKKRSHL
T5 sequence (P00750 36-562): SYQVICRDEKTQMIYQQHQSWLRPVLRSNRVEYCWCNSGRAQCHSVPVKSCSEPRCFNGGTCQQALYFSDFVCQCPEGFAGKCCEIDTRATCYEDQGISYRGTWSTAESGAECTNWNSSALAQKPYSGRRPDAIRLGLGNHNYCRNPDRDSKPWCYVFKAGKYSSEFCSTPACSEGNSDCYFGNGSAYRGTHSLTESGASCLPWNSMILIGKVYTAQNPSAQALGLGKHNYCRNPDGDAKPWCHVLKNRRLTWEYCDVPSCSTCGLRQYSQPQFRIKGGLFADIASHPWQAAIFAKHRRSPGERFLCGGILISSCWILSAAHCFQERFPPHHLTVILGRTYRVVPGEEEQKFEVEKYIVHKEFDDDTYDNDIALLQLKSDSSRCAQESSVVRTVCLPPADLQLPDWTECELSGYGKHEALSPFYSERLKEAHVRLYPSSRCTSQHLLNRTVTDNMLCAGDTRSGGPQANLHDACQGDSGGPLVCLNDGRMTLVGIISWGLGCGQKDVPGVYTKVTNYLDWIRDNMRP
T4 sequence (P00747 581-810 limits assumed): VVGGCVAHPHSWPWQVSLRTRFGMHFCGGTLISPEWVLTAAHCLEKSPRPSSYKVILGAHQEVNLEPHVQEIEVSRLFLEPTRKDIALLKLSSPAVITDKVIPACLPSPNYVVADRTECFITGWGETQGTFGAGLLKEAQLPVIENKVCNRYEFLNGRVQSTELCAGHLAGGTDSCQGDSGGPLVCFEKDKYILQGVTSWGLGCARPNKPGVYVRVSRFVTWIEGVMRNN
T4 sequence (P00747 97-580 limits assumed): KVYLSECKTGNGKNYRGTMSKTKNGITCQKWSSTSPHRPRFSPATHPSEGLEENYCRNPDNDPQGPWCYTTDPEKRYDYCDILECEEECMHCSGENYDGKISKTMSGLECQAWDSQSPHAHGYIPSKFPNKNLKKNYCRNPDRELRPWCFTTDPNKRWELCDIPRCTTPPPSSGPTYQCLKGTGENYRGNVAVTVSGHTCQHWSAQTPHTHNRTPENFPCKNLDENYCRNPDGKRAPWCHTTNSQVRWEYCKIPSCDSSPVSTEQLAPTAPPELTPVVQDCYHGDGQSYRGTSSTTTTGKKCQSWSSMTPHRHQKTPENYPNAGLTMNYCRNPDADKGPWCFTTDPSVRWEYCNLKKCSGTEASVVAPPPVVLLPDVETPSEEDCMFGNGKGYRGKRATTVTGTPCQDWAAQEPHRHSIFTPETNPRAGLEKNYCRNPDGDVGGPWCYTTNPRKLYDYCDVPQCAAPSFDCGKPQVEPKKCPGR

Consider `CC(=O)NC(Cc1ccccc1)C(=O)N(CC(=O)N[C@@H](CCCNC(=N)N)B(O)O)C1CCCC1.CC(=O)O` (mixture of isomers) [Ex. 27, 1-(R)-{[Ac-(RS)Phe-(N-cyclopentyl)Gly]amino}-4-guanidinobutylboronic acid acetate], for which the “factor by which the coagulation time (ACT) is increased” value in the series with OFA rats [1] (5 min) came out at 2.3; in the series with OFA rats [1] (15 min), 1.7; in the series with OFA rats [1] (30 min) it was 1.5; with OFA rats [1] (60 min), 1.3; in the series on OFA rats [7], 5. Moreover, the “Man CTT2 (concentration which multiplies the thrombin time by 2)” value (shortened to “Man CTT2”) in series [2] is 0.20 µM. The IC50 was 0.149 µM in [3]; 1.76 µM in series [4]; 0.104 µM in series [6]; 0.735 µM at purified human plasmin; 0.038 µM in [8]; 3.18 µM against purified human urokinase. Besides, the IC50 on human thrombin (setting [12]) is 0.0025 µM; on human thrombin (setting [13]), 0.00079 µM. In addition, the “Change in platelet count (% of control)” value was -4% in the series on dogs [5] (2 hr) and -1% in the series on dogs [5] (4 hr). Besides, the “selectivity with respect to the serine proteases of coagulation and of fibrinolysis compared with DUP 714” value (“selectivity” for short) on human thrombin is given as “greater selectivity”. The “Increase factor TT” value was determined as 11 in the series on dogs [9] (2 hr) and 3 with dogs [9] (4 hr).

As for `CC(=O)N[C@H](Cc1ccccc1)C(=O)N(CC(=O)N[C@@H](CCCN=C(N)N)B(O)O)C1CCCC1.CC(=O)O` [Ex. 28, 1-(R)-{[Ac-(R)Phe-(N-cyclopentyl)Gly]amino}-4-guanidinobutylboronic acid acetate], the “Man CTT2” value in series [2] was 0.19 µM. Further, the IC50 in series [3] came to 0.082 µM; in series [4], 0.225 µM; in [6], 0.091 µM; against purified human plasmin, 0.445 µM; in series [8] it was 0.047 µM; against purified human urokinase it was 1.82 µM. Also, the figures for the IC50 on human thrombin (setting [12]) and at human thrombin (setting [13]) were 0.002 µM and 0.00046 µM, respectively. Moreover, the figures for the “Change in platelet count (% of control)” value in the series with dogs [5] (2 hr) and in the series on dogs [5] (4 hr) were -4% and “+1%”, respectively. For the same molecule, on human thrombin, the “selectivity” value is “greater selectivity”. For the same molecule, on human thrombin, the “potency on human thrombin compared with DUP 714” value is recorded as “more potent inhibitors of human thrombin than the reference compound”. Moreover, the results for the “Increase factor TT” value in the series with dogs [9] (2 hr) and in the series with dogs [9] (4 hr) were 11 and 2, respectively.

Consider `CC(=O)N[C@H](Cc1ccccc1)C(=O)N(CC(=O)N[C@@H](CCCNC(=N)N)B(O)O)C1CCC1.CC(=O)O` [Ex. 25, 1-(R)-{[Ac-(R)Phe-(N-cyclobutyl)Gly]amino}-4-guanidinobutylboronic acid acetate], for which the concentration for half-maximal inhibition (IC50) was determined as 0.211 µM in series [3]; 0.356 µM in series [4]; 0.075 µM in [6]; 0.818 µM against purified human plasmin; 0.014 µM in [8]; 1.64 µM against purified human urokinase. The IC50 stood at 0.002 µM on human thrombin (setting [12]) and 0.00045 µM on human thrombin (setting [13]). The “selectivity” value at human thrombin is “greater selectivity”. For the same molecule, the “potency on human thrombin compared with DUP 714” value on human thrombin is “more potent inhibitors of human thrombin than the reference compound”.

`CC(=O)NC(Cc1ccccc1)C(=O)N1C2CCC(CC2)C1C(=O)NC(CCCNC(=N)N)B(O)O.CC(=O)O` (mixture of isomers) [Ex. 23, 1-(R)-[(Ac-(RS)Phe-Abo)amino]-4-guanidinobutylboronic acid acetate]: the “Rat CTT2 (concentration which multiplies the thrombin time by 2)” value in series [10] worked out at 0.17 µM. For the same molecule, the “concentration for doubling the thrombin time relative to DUP 714” value in series [10] (rats) was “one half”. Besides, the “Man CTT2” value in [2] turned out to be 0.11 µM.

In the case of `CC(=O)NC(Cc1ccccc1)C(=O)N1C(C(=O)NC(CCCNC(=N)N)B(O)O)CC2CCCCC21.CC(=O)O` (mixture of isomers) [Ex. 3, 1-(R)-[(Ac-(RS)Phe-Phi)amino]-4-guanidinobutylboronic acid acetate], the “Rat CTT2 (concentration which multiplies the thrombin time by 2)” value in series [10] came to 0.23 µM. Also, the “factor by which the coagulation time (ACT) is increased” value in the series with OFA rats [1] (5 min) was determined as 4.7; in the series on OFA rats [1] (15 min), 3.6; in the series with OFA rats [1] (30 min) it was 2.6; with OFA rats [1] (60 min), 2.0; in the series with OFA rats [7], 7.3. The “Man CTT2” value in [2] is 0.07 µM. In addition, in series [2] (humans), the “factor by which concentration for doubling the thrombin time is less than DUP 714” value is on record as 2.5. The “factor by which the thrombin time is increased” value with OFA rats [11] (0.5 hours) was 7.7; with OFA rats [11] (1 hour), 7.1; in the series with OFA rats [11] (2 hours) it was 5.6.
